Source: patent US10294202B2, “Pyrrolidinones as herbicides” (FMC Corporation, priority 2013, dated 2019)

What was measured:
nutsedge, yellow = experiment: Test C pre-/postemergence herbicide test; format: in vivo, Cyperus esculentus
Summary of the method: (§1)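 Greenhouse pots; formulation = non-phytotoxic solvent mix + surfactant. PRE onto seeds in loam:sand; POST at 1–4 leaves (2–18 cm) in peat moss/vermiculite medium. Read-out: visual % control vs untreated, day 13–15.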

barnyardgrass = experiment: Test A pre-/postemergence herbicide test; format: in vivo, Echinochloa crus-galli
Summary of the method: (§2)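 Greenhouse pot test with pre- and postemergence application of surfactant-containing solvent formulations. Postemergence plants were 2–10 cm, one- to two-leaf stage. Response scored visually after ~10 days, 0 (no effect) to 100 (complete control).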

pigweed = experiment: Test A pre-/postemergence herbicide test; format: in vivo, Amaranthus retroflexus
Summary of the method: as §2

ryegrass, Italian = experiment: Test C pre-/postemergence herbicide test; format: in vivo, Lolium multiflorum
Summary of the method: as §1

ducksalad = experiment: Test B flooded paddy test; format: in vivo, Heteranthera limosa; settings: 500 g ai/ha, Flood; scale of 0 to 100 where 0 is no effect and 100 is complete control
Summary of the method: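 Visual ratings from 0, meaning no effect, up to 100, meaning complete control, were made by comparison with untreated controls 13 to 15 days after treatment. Test compounds went straight into floodwater standing 3 cm over the soil of pots holding 2-leaf seedlings.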

galium = experiment: Test C pre-/postemergence herbicide test; format: in vivo, Galium aparine
Summary of the method: as §1

wheat (winter wheat) = experiment: Test C pre-/postemergence herbicide test; format: in vivo, Triticum aestivum
Summary of the method: as §1

oilseed rape = experiment: Test C pre-/postemergence herbicide test; format: in vivo, Brassica napus
Summary of the method: as §1

blackgrass = experiment: Test C pre-/postemergence herbicide test; format: in vivo, Alopecurus myosuroides
Summary of the method: as §1

wheat = experiment: Test A pre-/postemergence herbicide test; format: in vivo, Triticum aestivum; settings: Postemergence
Summary of the method: as §2

[1] = Postemergence, 31 g ai/ha, scale 0 to 100 (0 no effect, 100 complete control)
[2] = Postemergence, 62 g ai/ha, scale 0 (no effect) to 100 (complete control)
[3] = Postemergence, 125 g ai/ha, scale 0 to 100 (0 no effect, 100 complete control)
[4] = Postemergence, 250 g ai/ha, scale 0 to 100 (0 no effect, 100 complete control)
[5] = Preemergence, 31 g ai/ha, scale 0 to 100, 0 is no effect and 100 is complete control
[6] = Preemergence, 62 g ai/ha, scale 0 to 100 (0 no effect, 100 complete control)
[7] = Preemergence, 125 g ai/ha, scale 0 to 100 (0 no effect, 100 complete control)
[8] = 125 g ai/ha, visual rating, 0 to 100 scale, 0 no effect, 100 complete control, approximately 10 days, preemergence
[9] = Postemergence, 125 g ai/ha, 0 to 100 scale, 0 is no effect, 100 is complete control
[10] = preemergence, 500 g ai/ha, 0 to 100 scale, 0 is no effect and 100 is complete control
[11] = Preemergence, 62 g ai/ha, scale 0 to 100
[12] = 125 g ai/ha, 0 to 100 scale, 0 is no effect, 100 is complete control
[13] = Postemergence, 125 g ai/ha, visual rating on 0 to 100 scale (0 no effect, 100 complete control), approx. 10 days
[14] = Postemergence, 500 g ai/ha, 0 to 100 scale (0 no effect, 100 complete control)
[15] = Preemergence, 125 g ai/ha, 0 to 100 scale where 0 is no effect and 100 is complete control
[16] = Preemergence, 500 g ai/ha, visual rating on 0 to 100 scale (0 no effect, 100 complete control)

SMILES: O=C1NCC(c2cccc(OC(F)F)c2)C1C(=O)Nc1cccc(F)c1F (stereo not shown) [Compound 224]
- Plant response rating, Nutsedge, Yellow (nutsedge, yellow; [1]): 0
- Plant response rating, Nutsedge, Yellow (nutsedge, yellow; [2]): 0
- Plant response rating, Nutsedge, Yellow (nutsedge, yellow; [3]): 0
- Plant response rating, Nutsedge, Yellow (nutsedge, yellow; [4]): 0
- Nutsedge, Yellow plant response rating (nutsedge, yellow; [5]): 0
- Nutsedge, Yellow plant response rating (nutsedge, yellow; [6]): 10
- Plant response rating, Nutsedge, Yellow (nutsedge, yellow; [7]): 0
- Plant response rating (scale of 0 to 100), Nutsedge, Yellow (nutsedge, yellow; Preemergence, 250 g ai/ha): 0
- Plant response rating, Barnyardgrass (barnyardgrass; [8]): 90
- Plant response rating, Barnyardgrass (barnyardgrass; [9]): 80
- Barnyardgrass plant response rating (0 to 100 scale, 0 is no effect, 100 is complete control) (barnyardgrass; Postemergence, 500 g ai/ha): 90
- Plant response rating, Barnyardgrass (barnyardgrass; [10]): 90
- Plant response rating, Pigweed (pigweed; [8]): 80
- Plant response rating, Pigweed (pigweed; [9]): 60
- Pigweed plant response rating (0 to 100 scale, 0 is no effect, 100 is complete control) (pigweed; Postemergence, 500 g ai/ha): 80
- Plant response rating, Pigweed (pigweed; [10]): 80
- Plant response rating, Ryegrass, Italian (ryegrass, Italian; [1]): 0
- Plant response rating, Ryegrass, Italian (ryegrass, Italian; [2]): 0
- Plant response rating, Ryegrass, Italian (ryegrass, Italian; [3]): 5
- Plant response rating, Ryegrass, Italian (ryegrass, Italian; [4]): 5
- Ryegrass, Italian plant response rating (ryegrass, Italian; [5]): 0
- Ryegrass, Italian plant response rating (ryegrass, Italian; [6]): 0
- Plant response rating, Ryegrass, Italian (ryegrass, Italian; [7]): 0
- Plant response rating (scale of 0 to 100), Ryegrass, Italian (ryegrass, Italian; Preemergence, 250 g ai/ha): 15
- Plant response rating, Ducksalad (ducksalad): 100
- Plant response rating, Galium (galium; [1]): 5
- Plant response rating, Galium (galium; [2]): 45
- Plant response rating, Galium (galium; [3]): 60
- Plant response rating, Galium (galium; [4]): 85
- Galium plant response rating (galium; [5]): 0
- Galium plant response rating (galium; [6]): 40
- Plant response rating, Galium (galium; [7]): 85
- Plant response rating (scale of 0 to 100), Galium (galium; Preemergence, 250 g ai/ha): 85
- Plant response rating, Wheat (wheat (winter wheat); [1]): 0
- Plant response rating, Wheat (wheat (winter wheat); [2]): 0
- Plant response rating, Wheat (wheat (winter wheat); [3]): 5
- Plant response rating, Wheat (wheat (winter wheat); [4]): 5
- Wheat plant response rating (wheat (winter wheat); [5]): 0
- Wheat plant response rating (wheat (winter wheat); [6]): 0
- Plant response rating, Wheat (wheat (winter wheat); [7]): 0
- Plant response rating (scale of 0 to 100), Wheat (wheat (winter wheat); Preemergence, 250 g ai/ha): 45
- Plant response rating, Oilseed Rape (oilseed rape; [1]): 0
- Plant response rating, Oilseed Rape (oilseed rape; [2]): 15
- Plant response rating, Oilseed Rape (oilseed rape; [3]): 20
- Plant response rating, Oilseed Rape (oilseed rape; [4]): 5
- Oilseed Rape plant response rating (oilseed rape; [5]): 0
- Oilseed Rape plant response rating (oilseed rape; [6]): 5
- Plant response rating, Oilseed Rape (oilseed rape; [7]): 70
- Plant response rating (scale of 0 to 100), Oilseed Rape (oilseed rape; Preemergence, 250 g ai/ha): 85
- Plant response rating, Blackgrass (blackgrass; [1]): 0
- Plant response rating, Blackgrass (blackgrass; [2]): 0
- Plant response rating, Blackgrass (blackgrass; [3]): 0
- Plant response rating, Blackgrass (blackgrass; [4]): 0
- Blackgrass plant response rating (blackgrass; [5]): 0
- Plant response rating, Blackgrass (blackgrass; [11]): 65
- Plant response rating, Blackgrass (blackgrass; [7]): 70
- Plant response rating (scale of 0 to 100), Blackgrass (blackgrass; Preemergence, 250 g ai/ha): 85
- Plant response rating, Wheat (wheat; [12]): 50
- Wheat plant response rating (0 to 100 scale, 0 is no effect, 100 is complete control) (wheat; 500 g ai/ha): 60

SMILES: O=C1NCC(c2ccc(C(F)(F)F)cc2)C1C(=O)Nc1ccccc1F (stereo not shown) [Compound 231]
- Nutsedge, Yellow plant response rating (nutsedge, yellow; [5]): 0
- Nutsedge, Yellow plant response rating (nutsedge, yellow; [6]): 0
- Plant response rating, Nutsedge, Yellow (nutsedge, yellow; [7]): 0
- Plant response rating (scale of 0 to 100), Nutsedge, Yellow (nutsedge, yellow; Preemergence, 250 g ai/ha): 0
- Plant response rating, Barnyardgrass (barnyardgrass; [8]): 90
- Plant response rating, Barnyardgrass (barnyardgrass; [9]): 80
- Barnyardgrass plant response rating (0 to 100 scale, 0 is no effect, 100 is complete control) (barnyardgrass; Postemergence, 500 g ai/ha): 90
- Plant response rating, Barnyardgrass (barnyardgrass; [10]): 90
- Plant response rating, Pigweed (pigweed; [8]): 70
- Plant response rating, Pigweed (pigweed; [9]): 0
- Pigweed plant response rating (0 to 100 scale, 0 is no effect, 100 is complete control) (pigweed; Postemergence, 500 g ai/ha): 40
- Plant response rating, Pigweed (pigweed; [10]): 70
- Ryegrass, Italian plant response rating (ryegrass, Italian; [5]): 0
- Ryegrass, Italian plant response rating (ryegrass, Italian; [6]): 10
- Plant response rating, Ryegrass, Italian (ryegrass, Italian; [7]): 15
- Plant response rating (scale of 0 to 100), Ryegrass, Italian (ryegrass, Italian; Preemergence, 250 g ai/ha): 15
- Plant response rating, Ducksalad (ducksalad): 0
- Galium plant response rating (galium; [5]): 0
- Galium plant response rating (galium; [6]): 85
- Plant response rating, Galium (galium; [7]): 90
- Plant response rating (scale of 0 to 100), Galium (galium; Preemergence, 250 g ai/ha): 90
- Wheat plant response rating (wheat (winter wheat); [5]): 0
- Wheat plant response rating (wheat (winter wheat); [6]): 15
- Plant response rating, Wheat (wheat (winter wheat); [7]): 20
- Plant response rating (scale of 0 to 100), Wheat (wheat (winter wheat); Preemergence, 250 g ai/ha): 80
- Oilseed Rape plant response rating (oilseed rape; [5]): 0
- Oilseed Rape plant response rating (oilseed rape; [6]): 55
- Plant response rating, Oilseed Rape (oilseed rape; [7]): 85
- Plant response rating (scale of 0 to 100), Oilseed Rape (oilseed rape; Preemergence, 250 g ai/ha): 90
- Blackgrass plant response rating (blackgrass; [5]): 50
- Plant response rating, Blackgrass (blackgrass; [11]): 85
- Plant response rating, Blackgrass (blackgrass; [7]): 85
- Plant response rating (scale of 0 to 100), Blackgrass (blackgrass; Preemergence, 250 g ai/ha): 90
- Plant response rating, Wheat (wheat; [12]): 20
- Wheat plant response rating (0 to 100 scale, 0 is no effect, 100 is complete control) (wheat; 500 g ai/ha): 30

SMILES: CN1CC(c2ccc(F)c(F)c2)C(C(=O)Nc2cccc(F)c2F)C1=O (stereo not shown) [Compound 303]
- Plant response rating, Nutsedge, Yellow (nutsedge, yellow; [1]): 0
- Plant response rating, Nutsedge, Yellow (nutsedge, yellow; [2]): 0
- Plant response rating, Nutsedge, Yellow (nutsedge, yellow; [3]): 0
- Plant response rating, Nutsedge, Yellow (nutsedge, yellow; [4]): 0
- Nutsedge, Yellow plant response rating (nutsedge, yellow; [5]): 0
- Nutsedge, Yellow plant response rating (nutsedge, yellow; [6]): 0
- Plant response rating, Nutsedge, Yellow (nutsedge, yellow; [7]): 0
- Plant response rating (scale of 0 to 100), Nutsedge, Yellow (nutsedge, yellow; Preemergence, 250 g ai/ha): 25
- Plant response rating, Barnyardgrass (barnyardgrass; [13]): 80
- Plant response rating, Barnyardgrass (barnyardgrass; [14]): 90
- Plant response rating, Barnyardgrass (barnyardgrass; [15]): 90
- Barnyardgrass plant response rating (barnyardgrass; [16]): 90
- Plant response rating, Pigweed (pigweed; [13]): 40
- Plant response rating, Pigweed (pigweed; [14]): 60
- Plant response rating, Pigweed (pigweed; [15]): 20
- Pigweed plant response rating (pigweed; [16]): 50
- Plant response rating, Ryegrass, Italian (ryegrass, Italian; [1]): 0
- Plant response rating, Ryegrass, Italian (ryegrass, Italian; [2]): 0
- Plant response rating, Ryegrass, Italian (ryegrass, Italian; [3]): 0
- Plant response rating, Ryegrass, Italian (ryegrass, Italian; [4]): 5
- Ryegrass, Italian plant response rating (ryegrass, Italian; [5]): 30
- Ryegrass, Italian plant response rating (ryegrass, Italian; [6]): 35
- Plant response rating, Ryegrass, Italian (ryegrass, Italian; [7]): 70
- Plant response rating (scale of 0 to 100), Ryegrass, Italian (ryegrass, Italian; Preemergence, 250 g ai/ha): 75
- Plant response rating, Ducksalad (ducksalad): 100
- Galium plant response rating (galium; [5]): 90
- Galium plant response rating (galium; [6]): 0
- Plant response rating, Galium (galium; [7]): 85
- Plant response rating (scale of 0 to 100), Galium (galium; Preemergence, 250 g ai/ha): 85
- Plant response rating, Wheat (wheat (winter wheat); [1]): 0
- Plant response rating, Wheat (wheat (winter wheat); [2]): 0
- Plant response rating, Wheat (wheat (winter wheat); [3]): 0
- Plant response rating, Wheat (wheat (winter wheat); [4]): 0
- Wheat plant response rating (wheat (winter wheat); [5]): 0
- Wheat plant response rating (wheat (winter wheat); [6]): 75
- Plant response rating (scale of 0 to 100), Wheat (wheat (winter wheat); Preemergence, 250 g ai/ha): 90
- Plant response rating, Oilseed Rape (oilseed rape; [1]): 0
- Plant response rating, Oilseed Rape (oilseed rape; [2]): 0
- Plant response rating, Oilseed Rape (oilseed rape; [3]): 0
- Plant response rating, Oilseed Rape (oilseed rape; [4]): 30
- Oilseed Rape plant response rating (oilseed rape; [5]): 0
- Oilseed Rape plant response rating (oilseed rape; [6]): 35
- Plant response rating, Oilseed Rape (oilseed rape; [7]): 80
- Plant response rating (scale of 0 to 100), Oilseed Rape (oilseed rape; Preemergence, 250 g ai/ha): 85
- Plant response rating, Blackgrass (blackgrass; [1]): 0
- Plant response rating, Blackgrass (blackgrass; [2]): 0
- Plant response rating, Blackgrass (blackgrass; [3]): 0
- Plant response rating, Blackgrass (blackgrass; [4]): 0
- Blackgrass plant response rating (blackgrass; [5]): 0
- Blackgrass plant response rating (blackgrass; [6]): 40
- Plant response rating, Blackgrass (blackgrass; [7]): 80
- Plant response rating (scale of 0 to 100), Blackgrass (blackgrass; Preemergence, 250 g ai/ha): 90
- Plant response rating, Wheat (wheat; 125 g ai/ha, visual rating on 0 to 100 scale (0 no effect, 100 complete control), approx. 10 days): 50
- Plant response rating, Wheat (wheat; 500 g ai/ha, 0 to 100 scale (0 no effect, 100 complete control)): 60
